The text below walks through data of PMC5413048, “Palmitic acid is a toll-like receptor 4 ligand that induces human dendritic cell secretion of IL-1β” (PLoS ONE, 2017).

A word on the Kd: it is the free concentration of one partner at which half of the binding sites on the other are occupied at equilibrium, for simple one-to-one binding.

For the experiment, the target named is T1, MD-2 (TLR4/MD-2 complex) (Homo sapiens, UniProt Q9Y6Y9).
T1 construct: gene LY96; MD2 Glu17—Asn160 + 10-His Tag, co-expressed with TLR4 ectodomain Glu24—Lys631 + 10-His Tag; with TLR4 (O00206), ectodomain Glu24—Lys631
T1 sequence (Q9Y6Y9 17-160): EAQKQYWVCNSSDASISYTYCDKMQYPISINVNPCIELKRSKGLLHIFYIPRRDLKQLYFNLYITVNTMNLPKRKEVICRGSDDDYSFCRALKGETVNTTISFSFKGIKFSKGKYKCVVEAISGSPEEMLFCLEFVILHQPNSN
T1 sequence (O00206 24-631 partner): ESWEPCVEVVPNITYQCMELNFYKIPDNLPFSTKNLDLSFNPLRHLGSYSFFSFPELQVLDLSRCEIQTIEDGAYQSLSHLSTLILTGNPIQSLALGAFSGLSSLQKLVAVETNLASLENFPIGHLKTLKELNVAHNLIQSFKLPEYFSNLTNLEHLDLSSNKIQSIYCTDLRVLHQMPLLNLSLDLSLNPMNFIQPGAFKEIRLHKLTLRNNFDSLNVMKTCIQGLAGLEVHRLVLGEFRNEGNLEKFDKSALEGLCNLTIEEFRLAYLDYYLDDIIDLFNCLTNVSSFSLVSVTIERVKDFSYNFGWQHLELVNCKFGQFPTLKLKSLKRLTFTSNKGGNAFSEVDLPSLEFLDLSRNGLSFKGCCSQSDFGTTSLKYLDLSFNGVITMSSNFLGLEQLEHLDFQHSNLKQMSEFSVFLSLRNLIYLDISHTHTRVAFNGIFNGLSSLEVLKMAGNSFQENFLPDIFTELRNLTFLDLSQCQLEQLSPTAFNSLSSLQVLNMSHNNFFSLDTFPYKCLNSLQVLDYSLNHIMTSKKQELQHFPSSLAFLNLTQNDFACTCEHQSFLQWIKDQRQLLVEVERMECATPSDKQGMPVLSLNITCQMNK
Nature of the experiment: isothermal titration calorimetry of PA into recombinant human TLR4/MD-2 ([…]°C). It is filed as binding. A general note: ITC needs no label: the signal is the heat of the interaction.

On to `CCCCCCCCCCCCCCCC(=O)O` [PA, palmitic acid], for which the Kd was determined as 2300 nM.
